Measurements reported in patent US20080293679A1, “Use of carotenoids and/or carotenoid derivatives/analogs for reduction/inhibition of certain negative effects of COX inhibitors” (priority 2005, published 2008).
Marks after values point to notes of the source that are not given here.

Tests used:
[1] = test system: superoxide anion generation from phorbol-ester (PMA)-stimulated PMNs; test: Direct superoxide anion scavenging by EPR spectroscopy (DEPMPO spin trap), isolated human neutrophil assay; assay type: cell-based
Procedure: Leukocyte Isolation and Preparation. Human polymorphonuclear leukocytes (PMNs) were isolated from freshly sampled venous blood of a single volunteer by Percoll density gradient centrifugation as described previously. Briefly, each 10 mL of whole blood was mixed with 0.8 mL of 0.1 M EDTA and 25 mL of saline. The diluted blood was then layered over 9 mL of Percoll at a specific density of 1.080 g/mL. After centrifugation at 400×g for 20 min at 20° C., the plasma, mononuclear cell, and Percoll layers were removed. Erythrocytes were subsequently lysed by addition of 18 mL of ice-cold water for 30 s, followed by 2 mL of 10×PIPES buffer (25 mM PIPES, 110 mM NaCl, and 5 mM KCl, titrated to pH 7.4 with NaOH). Cells were then pelleted at 4° C., the supernatant was decanted, and the procedure was repeated. After the second hypotonic cell lysis, cells were washed twice with PAG buffer [PIPES buffer containing 0.003% human serum albumin (HSA) and 0.1% glucose]. Afterward, PMNs were counted by light microscopy on a hemocytometer. The isolation yielded PMNs with a purity of >95%. The final pellet was then suspended in PAG-CM buffer (PAG buffer with 1 mM CaCl2 and 1 mM MgCl2).
EPR Measurements. All EPR measurements were performed using a Bruker ER 300 EPR spectrometer operating at X-band with a TM110 cavity as previously described. The microwave frequency was measured with a Model 575 microwave counter (EIP Microwave, Inc., San Jose, Calif.). To measure superoxide anion ? generation from phorbol-ester (PMA)-stimulated PMNs, EPR spin-trapping studies were performed using the spin trap DEPMPO (Oxis, Portland, Oreg.) at 10 mM. 1×10^6 PMNs were stimulated with PMA (1 ng/mL) and loaded into capillary tubes for EPR measurements. To determine the radical scavenging ability of 3 and 9 in aqueous and ethanolic formulations, PMNs were pre-incubated for 5 minutes with test compound, followed by PMA stimulation.
Instrument settings used in the spin-trapping experiments were as follows: modulation amplitude, 0.32 G; time constant, 0.16 s; scan time, 60 s; modulation frequency, 100 kHz; microwave power, 20 milliwatts; and microwave frequency, 9.76 GHz. The samples were placed in a quartz EPR flat cell, and spectra were recorded. The component signals in the spectra were identified and quantified as reported previously.

[2] = Lipid peroxide levels in DLPC multilamellar vesicles, C/P 0.2 (triiodide assay); assay type: biochemical; details: for Lipid Peroxide Levels: mean ± S.D.
Procedure: The levels of lipid peroxide formation were measured photometrically at specific time points. […] Samples were prepared in a glass test tube as described in the table above. […] Sample tubes were vortexed for 3 min to form MLVs. This assay is based on the principle of the oxidative capacity of lipid peroxides to convert […], which can be measured photometrically at […] (El-Saadani et al., 1989). […] Samples were placed in a water bath set at 37° C. Samples remained in the water bath throughout the experiment except for the temporary removal for time point extractions. • 2. […] • 3. After combining sample time point aliquots with CHOD active reagent and the diffraction buffer as described in the table above, test samples were incubated about 6 hours in darkness at ambient temperature. • 4. The absorbance ([…] nm) of the samples was measured using a spectrophotometer. • 5. […] This value was determined by adding known concentrations of I2 to the CHOD reagent. A stoichiometric relationship (slope=1.02) was observed between the amount of organic peroxides assayed and the concentration of I3^- produced.

[3] = Peroxidation study in DLPC multilamellar vesicles, C/P 0.6; assay type: biochemical; details: C/P 0.6, carotenoid 10 μM, 48 hour
Procedure: 1. Samples were prepared in a glass test tube as described in the table above. This gives a cholesterol/DLPC mole ratio of 0.6 and a final concentration of 10 μM for the carotenoids. Equal volumes of vehicle (20 μl chloroform) were added to control samples. 2. All samples were dried down under a steady stream of nitrogen gas while vortexing. 3. Samples were placed in a vacuum desiccator for 2 hours to remove residual solvent and protected from light. 4. Multi-lamellar vesicles (MLVs) were prepared by the method developed by Bangham and Standish (1965). After samples were removed from the vacuum desiccator, they were immediately resuspended in 1 ml of diffraction buffer warmed to room temperature and vortexed for 3 minutes to form MLVs.
This assay is based on the principle of the oxidative capacity of lipid peroxides to convert I2 to I3^− (triiodide), which can be measured photometrically at 365 nm (el-Saadani et al., 1989). This assay is sensitive to peroxide concentrations as low as 10 μM.
1. Samples were placed in a water bath set at 37° C. throughout the experiment. 2. Aliquots of a sample (20 μl) were extracted at a 48 hour time point as described in the table below.
3. After combining the samples with CHOD active reagent and the diffraction buffer, test samples were incubated for about 6 hours in darkness at ambient temperature. 4. The absorbance of a sample was measured photometrically at 365 nm.
Concentrations of lipid peroxides were calculated by the use of the molar absorptivity of I3^− measured at 365 nm (ε=2.46±0.25×10^4M^−1 cm^−1). This value was determined by adding known concentrations of […] to the CHOD reagent. A stoichiometric relationship (slope=1.02) was observed between the amount of organic peroxides assayed and the concentration of I3^− produced.

[4] = Oxygen Radical Absorption Capacity (ORAC) of human plasma; assay type: biochemical; details: 10.0 μM (highest concentration tested); vehicle 28.1±1.2
Procedure: The comparative effect of COX-2 selective agents on the antioxidant capacity of human plasma was assessed using the Oxygen Radical Absorption Capacity (ORAC) assay. This assay was carried out according to the method of Huang et al., 2002 with fresh plasma using a microplate fluorescence reader in 96 well format with the excitation and emission filters set at 485 and 530 nm respectively.

[5] = F2-isoprostane formation from DAPC lipid vesicles by GC/NCI-MS; assay type: biochemical
Procedure: F2-Isoprostanes are derived principally from the formation of positioned peroxyl radical isomers of arachidonic acid, endocyclization to protaglandin G2-like structures, and reduction to PGF2-like compounds. Total levels of F2-isoprostanes, in DAPC lipid vesicles prepared in the presence of vehicle or drug, were measured by GC-MS with negative chemical ionization as described by Walter et al., 2000. Peroxidation of lipids occurred over time in the absence of any exogenous initiators at 37° C. F2-Isoprostane formation was also measured independently using mass spectroscopy in a blinded study at the Antioxidant Research Laboratory, Tufts University, Boston, Mass.

[6] = cited from earlier work
human LDL = test: MDA formation (TBARS) in isolated human LDL; assay type: biochemical; details: for MDA level in LDL samples: 1 μM, vehicle 3.23±0.28 μM
Procedure: The effects of the compounds on lipid peroxidation were tested in isolated human LDL. Human venous blood was collected into vacutainer tubes containing K3EDTA after a 12-hour fast. Plasma was immediately separated by centrifugation at 3000 g for 25 minutes. LDL was obtained from plasma by ultracentrifugation using a procedure similar to that reported by Chung et al, 1986 using discontinuous KBr gradient. The purity of the freshly isolated LDL was assessed by SDS-PAGE using the procedure of Laemmli, 1970.
The extent of oxidation was measured for the LDL in the absence and presence of the drugs over a range of concentrations. Malondialdehyde (MDA), a product of lipid oxidation, was measured by the reaction of this aldehyde with thiobarbituric acid in an acid medium to form a stable chromogen, referred to as thiobarbituric-acid-reactive-substances (TBARS). Purified LDL (100 μg protein/ml) was incubated for 30 minutes with either vehicle or an NSAID at various concentrations followed by addition of 50 μM CuSO4 at 37° C. Conjugated diene formation was measured by continuously monitoring the change in absorbance at 234 nm on a Beckman DU 640 spectrophotometer, as described by Esterbauer et al., 1985. Stock solutions were tested for iron contamination, which can contribute independently to lipid peroxidation and assay artifacts.

[7] = 24 Hour, carotenoid 1 μM, control 218 ± 20
[8] = 24 Hour, carotenoid 10 μM, control 218 ± 20
[9] = 48 Hour, carotenoid 1 μM, control 572 ± 76
[10] = 48 Hour, carotenoid 10 μM, control 572 ± 76

Row | Compound | % increase (+) or decrease (−) of lipid peroxide levels compared to control ([2]; 24 Hour, carotenoid 1 μM) | Lipid Peroxide Levels [2, 7] [µM] | % increase (+) or decrease (−) of lipid peroxide levels compared to control ([2]; 24 Hour, carotenoid 10 μM) | Lipid Peroxide Levels [2, 8] [µM] | % increase (+) or decrease (−) of lipid peroxide levels compared to control ([2]; 48 Hour, carotenoid 1 μM) | Lipid Peroxide Levels [2, 9] [µM] | % increase (+) or decrease (−) of lipid peroxide levels compared to control ([2]; 48 Hour, carotenoid 10 μM) | Lipid Peroxide Levels [2, 10] [µM] | other results
1 | 3,3′-Diphosphoryloxy-β,ε-carotene sodium salt [Lutein Diphosphate Sodium Salt] |  |  |  |  |  |  |  |  | Mean (% inhibition) of superoxide anion signal ([1]; 40% EtOH, 0.1 mM): 18%; Mean (% inhibition) of superoxide anion signal ([1]; Water, 0.1 mM, listed as disodium diphosphate derivative of natural source lutein, sodium salt): 0%; Mean (% inhibition) of superoxide anion signal ([1]; Water, 0.1 mM, sodium salt): no inhibition; Mean (% inhibition) of superoxide anion signal ([1]; Water, 1.0 mM): 9.3%; Mean (% inhibition) of superoxide anion signal ([1]; Water, 3.0 mM): 72.3%; Mean (% inhibition) of superoxide anion signal ([1]; Water, 5.0 mM, listed as disodium diphosphate derivative of natural source lutein, sodium salt): more than 90%; Mean (% inhibition) of superoxide anion signal ([1]; Water, 5.0 mM, sodium salt): 91.0%
2 | CC1=CC(O)CC(C)(C)C1/C=C/C(C)=C/C=C/C(C)=C/C=C/C=C(C)/C=C/C=C(C)/C=C/C1=C(C)CC(O)CC1(C)C (stereo not drawn) [Lutein, β,ε-carotene-3,3′-diol] | +15.6%^a | 252 ± 11 | +0.9%^a | 220 ± 8 | +13.5%^a | 649 ± 73 | +17.7%^a | 673 ± 69 | 
3 | CC(C)=CCC/C(C)=C/C=C/C(C)=C/C=C/C(C)=C/C=C/C=C(C)/C=C/C=C(C)/C=C/C=C(\C)CCC=C(C)C [Lycopene] | +9.6%^a | 239 ± 2 | +85.8%^a | 405 ± 32 | +13.1%^a | 647 ± 61 | +119.1%^a | 1253 ± 55 | antioxidant/prooxidant activity [3]: highest prooxidant activity
4 | CC1=C(/C=C/C(C)=C/C=C/C(C)=C/C=C/C=C(C)/C=C/C=C(C)/C=C/C2=C(C)C[C@@H](O)CC2(C)C)C(C)(C)C[C@H](O)C1 [Zeaxanthin] | +10.6%^a | 241 ± 12 | −0.5%^a | 217 ± 7 | +5.8%^a | 605 ± 26 | +20.6%^a | 690 ± 24 | 
5 | Cc1ccc(-c2cc(C(F)(F)F)nn2-c2ccc(S(N)(=O)=O)cc2)cc1 [celecoxib] |  |  |  |  |  |  |  |  | ORAC value (AUC) [4]: 28.5±0.1; effect on peroxidation of arachidonic acid-enriched vesicles ([5]; even at higher concentrations (data not shown)): no significant effect; maximum plasma concentration (Cmax) ([6]; approved 200 mg dose): 705 ng/mL; volume of distribution ([6]; in vivo): 400 L; Cmax ([6]; read-out: maximum plasma concentration (Cmax), approved 200 mg dose): 1850 nM
6 | CS(C)(=O)=O [dimethyl sulfone] |  |  |  |  |  |  |  |  | MDA level in LDL samples (human LDL): 3.32 ± 0.19 µM
7 | Cc1ccc(-c2ncc(Cl)cc2-c2ccc(S(C)(=O)=O)cc2)cn1 [etoricoxib] |  |  |  |  |  |  |  |  | effect on MDA levels (TBARS) in human LDL (human LDL): marked increases; Levels of isoprostanes ([5]; 100 nM, vehicle 140±25 ng/100 μl, mean ± S.D.): 224±22 ng/100 μl
8 | CS(=O)(=O)c1ccccc1 [methyl phenyl sulfone] |  |  |  |  |  |  |  |  | MDA level in LDL samples (human LDL): 3.25 ± 0.13 µM
9 | CC1=C(/C=C/C(C)=C/C=C/C(C)=C/C=C/C=C(C)/C=C/C=C(C)/C=C/C2=C(C)CCCC2(C)C)C(C)(C)CCC1 [β-Carotene] | +24.8%^a | 272 ± 10 | +69.3%^a | 369 ± 17 | +40.4%^a | 803 ± 99 | +86.7%^a | 1068 ± 82 | antioxidant/prooxidant activity [3]: prooxidant activity
